# Measurements published in ChEMBL document CHEMBL5236579, “Hydrophobicity Determines the Bacterial Killing Rate of α-Helical Antimicrobial Peptides and Influences the Bacterial Resistance Development” (J Med Chem, 2022).
# Active and inactive are the calls of the source. No cut-off for these calls is given here. Where a SMILES comes first, the peptide text is derived from it.
# Tests used:
# [1] = tested on: Cell membrane; assay: Induction of outer membrane permeabilization in Escherichia coli ATCC25722 assessed as increase fluorescence intensity at 0.5 to 2 times of MIC by NPN uptake assay; assay type: cell membranes; settings: time <= 15.0 min, TDE = time-dependent effect
# [2] = tested on: Vibrio parahaemolyticus; assay: Induction of bacterial resistance in Vibrio parahaemolyticus ATCC17802 assessed as change in MIC treated over 30 serial passages measured after 24 hrs; assay type: functional, organism-based
# [3] = tested on: Lipopolysaccharide (LPS); assay: Binding affinity to Escherichia coli LPS assessed as dissociation constant measured upto 600 sec by surface plasmon resonance imaging method
# [4] = tested on: Cell membrane; assay: Induction of outer membrane permeabilization in Vibrio parahaemolyticus ATCC17802 assessed as increase fluorescence intensity measured upto 15 mins by NPN uptake assay; assay type: cell membranes
# [5] = tested on: Lipopolysaccharide (LPS); assay: Binding affinity to Escherichia coli LPS assessed as LPS neutralizing activity measured after 5 mins by LPS neutralization assay
# [6] = tested on: Cell membrane; assay: Induction of outer membrane permeabilization in Escherichia coli ATCC25722 assessed as increase fluorescence intensity measured upto 15 mins by NPN uptake assay; assay type: cell membranes
# [7] = tested on: Vibrio parahaemolyticus; assay: Induction of morphological changes in Vibrio parahaemolyticus ATCC17802 assessed as surface fibrosis incubated at 5 times MIC and measured after 15 mins by scanning electron microscopy based analysis; assay type: functional, organism-based
# [8] = tested on: Cell membrane; assay: Induction of inner membrane permeabilization in Vibrio parahaemolyticus ATCC17802 assessed as calcein leakage at 5 times MIC by calcein-AM leakage assay; assay type: cell membranes; settings: time <= 200.0 min, TDE = time-dependent effect
# [9] = Effect on morphological changes in POPC/POPG (3:1) bilayer membrane assessed as formation of bulge aggregates by measuring the height of bulges at 2 ug/ml incubated for 40 mins under neutral pH and low ionic strength by atomic force microscopic analysis; assay type: cell membranes; settings: Cell membrane, dose 2.0 µg/ml
# [10] = tested on: Cell membrane; assay: Binding affinity to Vibrio parahaemolyticus ATCC17802 cell membrane assessed as increase in fluorescence intensity measured after 120 mins by flow cytometry analysis (reference value: 1.88%); assay type: cell membranes
# [11] = tested on: Cell membrane; assay: Induction of outer membrane permeabilization in Vibrio parahaemolyticus ATCC17802 assessed as increase fluorescence intensity at 0.5 to 2 times of MIC by NPN uptake assay; assay type: cell membranes; settings: time <= 15.0 min, TDE = time-dependent effect
# [12] = tested on: Escherichia coli; assay: In vivo antibacterial activity against Escherichia coli ATCC25722 infected in Balb/c mouse model assessed as reduction in bacterial CFU count on skin at 20 ug/ml incubated for 6 hrs post infection and measured after 2 hrs post compound treatment; assay type: functional, organism-based; settings: dose 20.0 µg/ml, time 8.0 hrs
# [13] = tested on: Cell membrane; assay: Binding affinity to Vibrio parahaemolyticus ATCC17802 cell membrane assessed as increase in fluorescence intensity measured after 30 mins by flow cytometry analysis (reference value: 1.85%); assay type: cell membranes
# [14] = tested on: Vibrio parahaemolyticus; assay: Induction of morphological changes in Vibrio parahaemolyticus ATCC17802 assessed as massive cell collapse incubated at 5 times MIC and measured after 15 mins by scanning electron microscopy based analysis; assay type: functional, organism-based
# [15] = tested on: Bacillus cereus; assay: Antimicrobial activity against clinical isolates Bacillus cereus by two fold broth microdilution method; assay type: functional
# [16] = tested on: Vibrio parahaemolyticus; assay: Bactericidal activity against Vibrio parahaemolyticus ATCC17802 assessed as killing rate at 0.5 X MIC by measuring time limit of detection by bacterial killing kinetic assay; assay type: functional
# [17] = tested on: Cell membrane; assay: Induction of inner membrane permeabilization in Vibrio parahaemolyticus ATCC17802 assessed as increase in PI fluorescence intensity at 5 times MIC by propidium iodide penetration assay; assay type: cell membranes; settings: time <= 200.0 min
# [18] = tested on: Cell membrane; assay: Induction of inner membrane permeabilization in Vibrio parahaemolyticus ATCC17802 at 5 times MIC measured upto 200 mins by propidium iodide penetration assay; assay type: cell membranes
# [19] = tested on: Staphylococcus aureus; assay: Antimicrobial activity against clinical isolates Staphylococcus aureus by two fold broth microdilution method; assay type: functional
# [20] = tested on: HaCaT; assay: Cytotoxicity against human HaCaT cells incubated for 48 hrs by MTT assay; assay type: toxicity, cell-based; settings: dose < 250 µg/ml
# [21] = tested on: Lipopolysaccharide (LPS); assay: Binding affinity to Escherichia coli LPS assessed as LPS neutralizing activity measured after 60 mins by LPS neutralization assay
# [22] = tested on: Staphylococcus aureus; assay: Antimicrobial activity against Staphylococcus aureus ATCC25923 by two fold broth microdilution method; assay type: functional; settings: read-out: MIC
# [23] = tested on: Vibrio parahaemolyticus; assay: Induction of morphological changes in Vibrio parahaemolyticus ATCC17802 assessed as cellular inclusion leakage incubated at 5 times MIC and measured after 15 mins by scanning electron microscopy based analysis; assay type: functional, organism-based
# [24] = tested on: Vibrio parahaemolyticus; assay: Antimicrobial activity against Vibrio parahaemolyticus ATCC17802 by two fold broth microdilution method; assay type: functional
# [25] = Hemolytic activity in human erythrocytes measured after 30 mins; assay type: toxicity, cell-based; settings: erythrocyte, 0.5 h
# [26] = tested on: Cell membrane; assay: Induction of cytoplasmic membrane permeabilization in Vibrio parahaemolyticus […] assessed as calcein transmembrane diffusion into interior of gaint unilamellar vesicles by measuring time to equilibrium between inside and outside of vesicles at 2 ug/mL by confocal microscopy based calcein-AM leakage assay; assay type: cell membranes; settings: dose 2.0 µg/ml
# [27] = tested on: Escherichia coli; assay: Antimicrobial activity against Escherichia coli ATCC27622 by two fold broth microdilution method; assay type: functional
# [28] = tested on: Peritoneal macrophage; assay: Cytotoxicity against mouse peritoneal macrophage cells incubated for 48 hrs by MTT assay; assay type: toxicity, cell-based; settings: dose < 250 µg/ml
# [29] = tested on: Cell membrane; assay: Induction of bacterial inner membrane permeabilization in Vibrio parahaemolyticus ATCC17802 assessed as calcein leakage from large unilamellar vesicles liposomes at 5 times MIC measured upto 60 mins by fluorescence based microplate reader assay; assay type: cell membranes
# [30] = tested on: Escherichia coli; assay: In vivo antibacterial activity against Escherichia coli ATCC25722 infected in Balb/c mouse model assessed as reduction in bacterial CFU count on skin at 20 ug/ml applied 4 hrs after infection and measured after 120 mins; assay type: functional, organism-based; settings: dose 20.0 µg/ml
compound,measurement,setting,value
CC[C@H](C)[C@H](NC(=O)[C@H](CC(C)C)NC(=O)[C@H](CCCNC(=N)N)NC(=O)[C@H](CC(C)C)NC(=O)[C@H](CC(C)C)NC(=O)[C@H](CCCCN)NC(=O)[C@H](CCCCN)NC(=O)[C@H](Cc1ccccc1)NC(=O)[C@H](CC(C)C)NC(=O)CNC(=O)[C@@H](N)CC(C)C)C(=O)N[C@@H](CC(C)C)C(=O)N[C@@H](CCCCN)C(=O)NCC(=O)N[C@@H](Cc1ccccc1)C(=O)N[C@@H](CCCCN)C(=O)N[C@@H](CC(C)C)C(=O)O (H-LGLFKKLLRLILKGFKL-OH),Activity,[1],Tde
same,Activity,[2],inactive
same,Kd,[3],82.1 µM
same,Activity,[4],Dose-Dependent Effect
same,Activity,[5],Active
same,Activity,[6],Dose-Dependent Effect
same,Activity,[7],Active
same,Activity,[8],Tde
same,Activity,[9],20 nm
same,Activity,[10],88.1%
same,Activity,[11],Tde
same,Activity,[12],Active
same,Activity,[13],98.5%
same,Activity,[14],Active
same,MIC,[15],9.38 µg/mL
same,Time,[16],15 min
same,Activity,[17],Active
same,Activity,[18],Active
same,MIC,[19],9.38 µg/mL
same,Activity,[20],Dose-Dependent Effect
same,Activity,[21],Active
same,MIC,[22],1.17 µg/mL
same,Activity,[23],Active
same,MIC,[24],4.69 µg/mL
same,Activity,[25],Toxic
same,TIME,[26],< 0.25 h
same,MIC,[27],9.38 µg/mL
same,Activity,[28],Dose-Dependent Effect
same,Activity,[29],Active
same,Activity,[30],Active
